Measured values reported in patent US9701689B2, “Substituted pyridines and pyridazines as CCR10 receptor inhibitors” (KYOWA HAKKO KIRIN CO., LTD., priority 2012, dated 2017).

Biological target: T1, human CCR10 (Homo sapiens, UniProt P46092)
T1 construct: expressed in transfected cells; host or cells: KJMGER8 cells (Namalwa cell-derived line), beta-estradiol-induced; hCCR10G16 cells
T1 sequence (P46092 1-362): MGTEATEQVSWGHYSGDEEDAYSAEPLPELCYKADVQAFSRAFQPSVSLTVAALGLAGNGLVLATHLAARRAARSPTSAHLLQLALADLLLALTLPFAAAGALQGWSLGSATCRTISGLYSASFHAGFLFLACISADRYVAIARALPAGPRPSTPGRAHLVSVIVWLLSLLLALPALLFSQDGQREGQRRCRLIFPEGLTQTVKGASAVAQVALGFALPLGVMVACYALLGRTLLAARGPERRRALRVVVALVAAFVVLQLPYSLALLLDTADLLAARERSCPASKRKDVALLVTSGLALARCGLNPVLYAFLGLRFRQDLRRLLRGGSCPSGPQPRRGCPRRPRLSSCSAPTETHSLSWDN
Test: CCR10 antagonistic effect: calcium assay of human CCR10 (CTACK-induced increase of intracellular calcium in hCCR10G16 cells)
Format: cell-based
Settings: at a concentration of not more than 1000 nmol/L; human CCR10-expressing hCCR10G16 cells, 300 nmol/L CTACK added; read-out: inhibition of increase in the calcium ion concentration
Procedure, shortened: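 Inhibition of CTACK-evoked calcium flux (max minus min Fluo-3 fluorescence over ~5 min, FDSS) was calculated against control in β-estradiol-induced human CCR10/Gα16 KJMGER8 cells, after 30 min compound preincubation at 37 °C; CTACK added from a 300 nmol/L solution.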

inhibition at up to 1 µM [%]	Structure (SMILES)
≥ 50	Cc1cccc(Nc2c(C(=O)N3CCN(c4ccccc4Cl)CC3)cnc(S(N)(=O)=O)c2Cl)c1 [Compound 206, 3-chloro-5-[4-(2-chlorophenyl)piperazine-1-carbonyl]-4-(m-tolylamino)pyridine-2-sulfonamide]
≥ 50	Cc1c(S(N)(=O)=O)ncc(C(=O)N2CCC(c3ccc(F)cc3)CC2)c1NC1CCCCC1 [Compound 207, 4-(cyclohexylamino)-5-[4-(4-fluorophenyl)piperidine-1-carbonyl]-3-methylpyridine-2-sulfonamide]
≥ 50	COC1(c2ccc(F)cc2)CCN(C(=O)c2cnc(S(N)(=O)=O)c(Cl)c2Nc2cccc(C)c2)CC1 [Compound 208, 3-chloro-5-[4-(4-fluorophenyl)-4-methoxypiperidine-1-carbonyl]-4-(m-tolylamino)pyridine-2-sulfonamide]
≥ 50	Cc1cccc(Nc2c(C(=O)N3CCN(c4ccc(F)cc4)C(=O)C3)cnc(S(N)(=O)=O)c2Cl)c1 [Compound 209, 3-chloro-5-[4-(4-fluorophenyl)-3-oxopiperazine-1-carbonyl]-4-(m-tolylamino)pyridine-2-sulfonamide]
≥ 50	Cc1cccc(Sc2c(C(=O)N3CCC(c4ccc(F)cc4)CC3)cnc(S(N)(=O)=O)c2Cl)c1 [Compound 210, 3-chloro-5-[4-(4-fluorophenyl)piperidine-1-carbonyl]-4-(m-tolylthio)pyridine-2-sulfonamide]
≥ 50	NS(=O)(=O)c1ncc(C(=O)N2CCC(c3ccc(F)cc3)CC2)c(NC(=O)c2ccccc2)c1Cl [Compound 211, N-{3-chloro-5-[4-(4-fluorophenyl)piperidine-1-carbonyl]-2-sulfamoylpyridin-4-yl}benzamide]
≥ 50	NS(=O)(=O)c1ncc(C(=O)N2CCC(c3ccc(F)cc3)CC2)c(Cc2ccccc2)c1Cl [Compound 212, 4-benzyl-3-chloro-5-[4-(4-fluorophenyl)piperidine-1-carbonyl]pyridine-2-sulfonamide]
≥ 50	Cc1cccc(Nc2c(C(=O)N3CC4CN(c5ccc(F)cc5)CC4C3)cnc(S(N)(=O)=O)c2Cl)c1 (centres unmarked) [Compound 213, 3-chloro-5-[5-(4-fluorophenyl)octahydropyrrolo[3,4-c]pyrrole-2-carbonyl]-4-(m-tolylamino)pyridine-2-sulfonamide]
≥ 50	Cc1c(S(N)(=O)=O)ncc(C(=O)N2CCC(c3ccc(F)cc3)CC2)c1NCC1CCOCC1 [Compound 214, 5-[4-(4-fluorophenyl)piperidine-1-carbonyl]-3-methyl-4-[(tetrahydro-2H-pyran-4-yl)methylamino]pyridine-2-sulfonamide]
≥ 50	Cc1c(S(=O)(=O)Nc2ccon2)ncc(C(=O)N2CCC(c3ccc(F)cc3)CC2)c1NC1CCCCC1 [Compound 215, 4-(cyclohexylamino)-5-[4-(4-fluorophenyl)piperidine-1-carbonyl]-N-(isoxazol-3-yl)-3-methylpyridine-2-sulfonamide]
≥ 50	CC(=O)C1(c2ccc(F)cc2)CCN(C(=O)c2cnc(S(N)(=O)=O)c(Cl)c2Nc2cccc(C)c2)CC1 [Compound 216, 5-[4-acetyl-4-(4-fluorophenyl)piperidine-1-carbonyl]-3-chloro-4-(m-tolylamino)pyridine-2-sulfonamide]
≥ 50	NS(=O)(=O)c1ncc(C(=O)N2CCC(c3ccc(F)cc3)CC2)c(N[C@H]2C[C@@H]3CC[C@H]2O3)c1Cl [Compound 217, 4-((1R,2S,4S)-7-oxabicyclo[2.2.1]heptan-2-ylamino)-3-chloro-5-[4-(4-fluorophenyl)piperidine-1-carbonyl]pyridine-2-sulfonamide]
≥ 50	Cc1cccc(Nc2c(C(=O)N3CCC4(CC3)CNc3ccccc3C4)cnc(S(N)(=O)=O)c2Cl)c1 [Compound 218, 3-chloro-5-[2′,4′-dihydro-1′H-spiro[piperidine-4,3′-quinoline]-1-ylcarbonyl]-4-(m-tolylamino)pyridine-2-sulfonamide]
≥ 50	Cc1ncc(Nc2c(C(=O)N3CCC(c4ccc(F)cc4)CC3)cnc(S(N)(=O)=O)c2Cl)c(C)n1 [Compound 219, 3-chloro-4-(2,4-dimethylpyrimidin-5-ylamino)-5-[4-(4-fluorophenyl)piperidine-1-carbonyl]pyridine-2-sulfonamide]
≥ 50	Cc1c(S(N)(=O)=O)ncc(C(=O)N2CCC(c3ccc(F)cc3)CC2)c1NC(C)c1ccccc1 (centres unmarked) [Compound 220, 5-[4-(4-fluorophenyl)piperidine-1-carbonyl]-3-methyl-4-(1-phenylethylamino)pyridine-2-sulfonamide]
≥ 50	Cc1c(S(N)(=O)=O)ncc(C(=O)N2CCC(c3ccc(F)cc3)CC2)c1NCc1cccnc1 [Compound 221, 5-[4-(4-fluorophenyl)piperidine-1-carbonyl]-3-methyl-4-(pyridin-3-ylmethylamino)pyridine-2-sulfonamide]
≥ 50	Cc1c(S(=O)(=O)Nc2ccon2)ncc(C(=O)N2CCC(c3ccc(F)cc3)CC2)c1NCCc1ccccc1 [Compound 222, 5-[4-(4-fluorophenyl)piperidine-1-carbonyl]-N-(isoxazol-3-yl)-3-methyl-4-(phenethylamino)pyridine-2-sulfonamide]
≥ 50	Cc1c(S(=O)(=O)Nc2ccon2)ncc(C(=O)N2CCC(c3ccc(F)cc3)CC2)c1NCc1ccccn1 [Compound 223, 5-[4-(4-fluorophenyl)piperidine-1-carbonyl]-N-(isoxazol-3-yl)-3-methyl-4-(pyridin-2-ylmethylamino)pyridine-2-sulfonamide]
≥ 50	Cc1c(S(=O)(=O)Nc2ccon2)ncc(C(=O)N2CCC(c3ccc(F)cc3)CC2)c1NCCN1CCOCC1 [Compound 224, 5-[4-(4-fluorophenyl)piperidine-1-carbonyl]-N-(isoxazol-3-yl)-3-methyl-4-(2-morpholinoethylamino)pyridine-2-sulfonamide]
≥ 50	O=C(c1cnc(S(=O)(=O)Nc2ccon2)c(F)c1NCc1ccccc1)N1CCC(c2ccc(F)cc2)CC1 [Compound 225, 4-(benzylamino)-3-fluoro-5-[4-(4-fluorophenyl)piperidine-1-carbonyl]-N-(isoxazol-3-yl)pyridine-2-sulfonamide]
≥ 50	CCNC(=O)NS(=O)(=O)c1ncc(C(=O)N2CCC(c3ccc(F)cc3)CC2)c(Nc2ccccc2C)c1C [Compound 226, N-(ethylcarbamoyl)-5-[4-(4-fluorophenyl)piperidine-1-carbonyl]-3-methyl-4-(o-tolylamino)pyridine-2-sulfonamide]
≥ 50	Cc1c(S(=O)(=O)Nc2ccon2)ncc(C(=O)N2CCC(c3ccc(F)cc3)CC2)c1NCC1CCC1 [Compound 227, 4-(cyclobutylmethylamino)-5-[4-(4-fluorophenyl)piperidine-1-carbonyl]-N-(isoxazol-3-yl)-3-methylpyridine-2-sulfonamide]
≥ 50	Cc1c(S(N)(=O)=O)ncc(C(=O)N2CCC(c3ccc(F)cc3)CC2)c1NCc1cccc(C#N)c1 [Compound 228, 4-(3-cyanobenzylamino)-5-[4-(4-fluorophenyl)piperidine-1-carbonyl]-3-methylpyridine-2-sulfonamide]
≥ 50	Cc1cc(F)ccc1Nc1cc(S(N)(=O)=O)nnc1C(=O)N1CCC(c2ccc(F)cc2)CC1 [Compound 229, 5-(4-fluoro-2-methylphenylamino)-6-[4-(4-fluorophenyl)piperidine-1-carbonyl]pyridazine-3-sulfonamide]
≥ 50	NS(=O)(=O)c1ncc(C(=O)N2CCC(c3ccc(F)cc3)CC2)c(NC2(c3ccccc3)CC2)c1Cl [Compound 230, 3-chloro-5-[4-(4-fluorophenyl)piperidine-1-carbonyl]-4-(1-phenylcyclopropylamino)pyridine-2-sulfonamide]
≥ 50	NS(=O)(=O)c1ncc(C(=O)N2CCC(c3ccc(F)cc3)CC2)c(NCc2cccs2)c1Cl [Compound 231, 3-chloro-5-[4-(4-fluorophenyl)piperidine-1-carbonyl]-4-(thiophen-2-ylmethylamino)pyridine-2-sulfonamide]
≥ 50	COc1ccc(Nc2c(C(=O)N3CCC(c4ccc(F)cc4)CC3)cnc(S(=O)(=O)Nc3ccon3)c2C)c(C)c1 [Compound 234, 5-[4-(4-fluorophenyl)piperidine-1-carbonyl]-N-(isoxazol-3-yl)-4-(4-methoxy-2-methylphenylamino)-3-methylpyridine-2-sulfonamide]
≥ 50	Cc1ccc(Nc2c(C(=O)N3CCC(c4ccc(F)cc4)CC3)cnc(S(=O)(=O)Nc3ccon3)c2C)c(F)c1 [Compound 235, 4-(2-fluoro-4-methylphenylamino)-5-[4-(4-fluorophenyl)piperidine-1-carbonyl]-N-(isoxazol-3-yl)-3-methylpyridine-2-sulfonamide]
≥ 50	NS(=O)(=O)c1ncc(C(=O)N2CCC(c3ccc(F)cc3)CC2)c(N[C@H]2C[C@H]3CC[C@@H]2C3)c1Cl [Compound 236, 4-((1R,2S,4S)-bicyclo[2.2.1]heptan-2-ylamino)-3-chloro-5-[4-(4-fluorophenyl)piperidine-1-carbonyl]pyridine-2-sulfonamide]
